For this experiment, the target named is hTRPV3 (Homo sapiens (Human), UniProt Q8NET8). Description: Whole-cell patch clamp, hTRPV3 Phase 1 / Phase 2 currents. Format: cell-based. The essentials: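 Currents are activated by 20 μM 2-APB or by perfusate at 28 °C or warmer, in Ringer's solution, and quantified at ±80 mV.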
For orientation: Patch clamp records ionic current or voltage across a cell membrane.

[1] abbreviates: Phase 1 current, human TRPV3, read-out: hTRPV3 (nM) Phase 1.
Where [2] appears, read: Phase 1 current, inward, whole-cell patch clamp, read-out: hTRPV3 Patch P1 Inwd.

Counter-ions that a name gives are not always drawn. Like-named read-outs stand apart in the source and are kept apart here. Where only a bound is given, the exact number is not on record here.

Sequence of hTRPV3 (Q8NET8 whole entry): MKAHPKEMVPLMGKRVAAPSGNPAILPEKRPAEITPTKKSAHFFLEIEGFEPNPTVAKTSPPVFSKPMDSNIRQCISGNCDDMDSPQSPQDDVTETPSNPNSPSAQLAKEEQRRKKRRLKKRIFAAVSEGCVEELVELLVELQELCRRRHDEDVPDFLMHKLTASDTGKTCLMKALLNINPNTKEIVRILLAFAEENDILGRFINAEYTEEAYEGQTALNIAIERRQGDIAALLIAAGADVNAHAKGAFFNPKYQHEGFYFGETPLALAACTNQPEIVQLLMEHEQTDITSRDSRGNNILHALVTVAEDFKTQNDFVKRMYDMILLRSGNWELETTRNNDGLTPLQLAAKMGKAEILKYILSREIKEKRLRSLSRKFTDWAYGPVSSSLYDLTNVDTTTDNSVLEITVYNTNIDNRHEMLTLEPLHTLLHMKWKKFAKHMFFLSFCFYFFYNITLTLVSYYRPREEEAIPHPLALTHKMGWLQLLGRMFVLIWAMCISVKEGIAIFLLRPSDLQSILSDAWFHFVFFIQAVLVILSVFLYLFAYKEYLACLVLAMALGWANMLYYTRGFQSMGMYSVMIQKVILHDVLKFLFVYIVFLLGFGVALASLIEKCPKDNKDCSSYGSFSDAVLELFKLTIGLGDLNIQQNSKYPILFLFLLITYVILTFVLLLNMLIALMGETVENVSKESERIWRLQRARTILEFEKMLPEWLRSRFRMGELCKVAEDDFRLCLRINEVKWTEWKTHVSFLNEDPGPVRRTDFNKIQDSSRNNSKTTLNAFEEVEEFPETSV

In the case of `Cc1ccc(CN2CCC(c3ccc(Oc4ccccc4C(C)C)cc3CO)C2)nc1` (stereo not drawn) [Compound 2-90, (5-(2-isopropylphenoxy)-2-(1-((5-methylpyridin-2-yl)methyl)pyrrolidin-3-yl)phenyl)methanol hydrochloride], the IC50 by setting is: under setting [1], 812 nM; under setting [2], 100 to 1000 nM.

Take `CC(C)c1ccccc1Oc1ccc(C2CCN(Cc3ccc(Cl)cn3)C2)c(CO)c1` (stereo not drawn) [Compound 2-91, (2-(1-((5-chloropyridin-2-yl)methyl)pyrrolidin-3-yl)-5-(2-isopropylphenoxy)phenyl)methanol]: the IC50 was 325 nM under setting [1] and 100 to 1000 nM under setting [2].

Regarding `CC(C)c1ccccc1Oc1ccc(C2CCN(Cc3ncccc3Cl)C2)c(CO)c1` (stereo not drawn) [Compound 2-92, (2-(1-((3-chloropyridin-2-yl)methyl)pyrrolidin-3-yl)-5-(2-isopropylphenoxy)phenyl)methanol hydrochloride], the IC50 by setting is: under setting [1], 592 nM; under setting [2], 100 to 1000 nM.

Turning to `Cc1cccc(CN2CCC(c3ccc(Oc4ccccc4C(C)C)cc3CO)C2)n1` (stereo not drawn) [Compound 2-94, (5-(2-isopropylphenoxy)-2-(1-((6-methylpyridin-2-yl)methyl)pyrrolidin-3-yl)phenyl)methanol hydrochloride], the IC50 under setting [1] was determined as 339 nM and the IC50 under setting [2] lay in the range of 100 to 1000 nM.

Turning to `CC(C)c1ccccc1Oc1ccc(C2CCN(Cc3cccc(Cl)n3)C2)c(CO)c1` (stereo not drawn) [Compound 2-96, (2-(1-((6-chloropyridin-2-yl)methyl)pyrrolidin-3-yl)-5-(2-isopropylphenoxy)phenyl)methanol hydrochloride], the IC50 is 246 nM under setting [1] and 100 to 1000 nM under setting [2].

With `Cc1cccc(CN2CC(c3ccc(Oc4ccccc4C(C)C)cc3C(N)=O)CC2=O)n1` (stereo not drawn) [Compound 2-97, 5-(2-isopropylphenoxy)-2-(1-((6-methylpyridin-2-yl)methyl)-5-oxopyrrolidin-3-yl)benzamide], the IC50 is, setting by setting: under setting [1], more than 3200 nM; under setting [2], more than 1000 nM.

In the case of `CCc1ccccc1Oc1ccc(C2CC(=O)N(Cc3cccc(C)n3)C2)c(C(N)=O)c1` (stereo not drawn) [Compound 2-98, 5-(2-ethylphenoxy)-2-(1-((6-methylpyridin-2-yl)methyl)-5-oxopyrrolidin-3-yl)benzamide], the IC50 was more than 3200 nM under setting [1] and more than 1000 nM under setting [2].

On to `CC(C)c1ccccc1Oc1ccc(C2CC(=O)N(Cc3ccccn3)C2)c(C(N)=O)c1` (stereo not drawn) [Compound 2-99, 5-(2-isopropylphenoxy)-2-(5-oxo-1-(pyridin-2-ylmethyl)pyrrolidin-3-yl)benzamide], for which the IC50 under setting [1] is more than 3200 nM and the IC50 under setting [2] was more than 1000 nM.

Consider `CCc1ccccc1Oc1ccc(C2CC(=O)N(Cc3ccccn3)C2)c(C(N)=O)c1` (stereo not drawn) [Compound 2-100, 5-(2-ethylphenoxy)-2-(5-oxo-1-(pyridin-2-ylmethyl)pyrrolidin-3-yl)benzamide], for which the IC50 by setting is: under setting [1], more than 3200 nM; under setting [2], more than 1000 nM.

As for `CCc1ccccc1Oc1ccc(C2CC(=O)N(Cc3ccc(Cl)cn3)C2)c(C(N)=O)c1` (stereo not drawn) [Compound 2-101, 2-(1-((5-chloropyridin-2-yl)methyl)-5-oxopyrrolidin-3-yl)-5-(2-ethylphenoxy)benzamide], the IC50 is more than 3200 nM under setting [1] and more than 1000 nM under setting [2].

On to `CC(C)c1ccccc1Oc1ccc(C2CC(=O)N(Cc3ccc(Cl)cn3)C2)c(C(N)=O)c1` (stereo not drawn) [Compound 2-102, 2-(1-((5-chloropyridin-2-yl)methyl)-5-oxopyrrolidin-3-yl)-5-(2-isopropylphenoxy)benzamide], for which the IC50 is approximately 2150 nM under setting [1] and more than 1000 nM under setting [2].

On to `Cc1nccnc1C(=O)N1CCC(c2ccc(-c3ccccc3C3CC3)cc2CO)C1` (stereo not drawn) [Compound 2-104, (3-(2′-cyclopropyl-3-(hydroxymethyl)biphenyl-4-yl)pyrrolidin-1-yl)(3-methylpyrazin-2-yl)methanone], for which the IC50 is, setting by setting: under setting [1], 756 nM; under setting [2], 100 to 1000 nM.

`Cc1cnc(C(=O)N2CCC(c3ccc(-c4ccccc4C4CC4)cc3CO)C2)cn1` (stereo not drawn) [Compound 2-106, (3-(2′-cyclopropyl-3-(hydroxymethyl)biphenyl-4-yl)pyrrolidin-1-yl)(5-methylpyrazin-2-yl)methanone]: the IC50 reads like this: under setting [1], 67 nM; under setting [2], 10 to 100 nM.

As to `O=C(c1cnc(Cl)cn1)N1CCC(c2ccc(-c3ccccc3C3CC3)cc2CO)C1` (stereo not drawn) [Compound 2-108], the IC50 reads like this: under setting [1], 12.9 nM; under setting [2], 10 to 100 nM.

`Cc1cncc(C(=O)N2CCC(c3ccc(-c4ccccc4C4CC4)cc3CO)C2)n1` (stereo not drawn) [Compound 2-109]: the IC50 runs as follows: under setting [1], 18.2 nM; under setting [2], 10 to 100 nM.

For the compound `O=C(c1ccncn1)N1CCC(c2ccc(-c3ccccc3C3CC3)cc2CO)C1` (stereo not drawn) [Compound 2-110, (3-(2′-cyclopropyl-3-(hydroxymethyl)biphenyl-4-yl)pyrrolidin-1-yl)(pyrimidin-4-yl)methanone], the IC50 is 197 nM under setting [1] and 100 to 1000 nM under setting [2].

Take `O=C(c1cscn1)N1CCC(c2ccc(-c3ccccc3C3CC3)cc2CO)C1` (stereo not drawn) [Compound 2-111, (3-(2′-cyclopropyl-3-(hydroxymethyl)biphenyl-4-yl)pyrrolidin-1-yl)(thiazol-4-yl)methanone]: the IC50 by setting is: under setting [1], 194 nM; under setting [2], 100 to 1000 nM.

Regarding `O=C(c1cc[nH]n1)N1CCC(c2ccc(-c3ccccc3C3CC3)cc2CO)C1` (stereo not drawn) [Compound 2-112, (3-(2′-cyclopropyl-3-(hydroxymethyl)biphenyl-4-yl)pyrrolidin-1-yl)(1H-pyrazol-3-yl)methanone], the IC50 runs as follows: under setting [1], 98 nM; under setting [2], 10 to 100 nM.

For `CCc1ccccc1-c1ccc(C2CCN(C(=O)C3CCN(C)CC3)C2)c(CO)c1` (stereo not drawn) [Compound 2-115], the IC50 under setting [1] is more than 3200 nM.

For the compound `CC(C)c1ccccc1Oc1ccc(C2CCN(C(=O)Cc3ncccc3Cl)C2)c(CO)c1` (stereo not drawn) [Compound 2-117], the IC50 is approximately 3500 nM under setting [1] and 2620 nM (Phase 2 current, human TRPV3, read-out: hTRPV3 (nM) Phase 2).

As to `COC(=O)c1cc(-c2ccccc2C(C)C)ccc1C1CCN(C(=O)C(F)(F)F)C1` (stereo not drawn) [Compound 2-120], the IC50 under setting [1] is more than 3200 nM.

As to `O=C(c1cocn1)N1CCC(c2ccc(-c3ccccc3C3CC3)cc2CO)C1` (stereo not drawn) [Compound 2-121], the IC50 under setting [1] was found to be 61.2 nM.

On to `O=C(c1ncccn1)N1CCC(c2ccc(-c3ccccc3C3CC3)cc2CO)C1` (stereo not drawn) [Compound 2-122], for which the IC50 under setting [1] worked out at 202 nM.

In the case of `Cc1cc(C(=O)N2CCC(c3ccc(-c4ccccc4C4CC4)cc3CO)C2)no1` (stereo not drawn) [Compound 2-123], the IC50 under setting [1] came to 62.9 nM.

As for `O=C(c1csc(Cl)n1)N1CCC(c2ccc(-c3ccccc3C3CC3)cc2CO)C1` (stereo not drawn) [Compound 2-124], the IC50 under setting [1] was 20.7 nM.

Consider “(3-(4-(4-chloro-3-ethylpyridin-2-yloxy)-2-(hydroxymethyl)phenyl)pyrrolidin-1-yl)(5-fluoropyridin-2-yl)methanone [Compound 2-43]”, for which the IC50 is, setting by setting: under setting [1], more than 3200 nM; under setting [2], more than 1000 nM.

As for “(S)-(6-(2-ethylphenoxy)-3-(3-(5-(trifluoromethyl)pyridin-2-yloxy)pyrrolidin-1-yl)pyridin-2-yl)methanol [Compound 1-212]”, the IC50 runs as follows: under setting [2], more than 1000 nM; (Phase 1 current, read-out: hTRPV3 (nM) (Phase 1)) more than 3200 nM.

(Values after US12435061B2 (priority 2020, dated 2025).)
